# Experimental data published in patent US20090270381A1, “Non-steroidal progesterone receptor modulators” (priority 2007, published 2009).
# Biological target: T1, PR-B (Homo sapiens, UniProt P06401)
# T1 construct: expressed in transfected cells
# T1 sequence (P06401 1-933): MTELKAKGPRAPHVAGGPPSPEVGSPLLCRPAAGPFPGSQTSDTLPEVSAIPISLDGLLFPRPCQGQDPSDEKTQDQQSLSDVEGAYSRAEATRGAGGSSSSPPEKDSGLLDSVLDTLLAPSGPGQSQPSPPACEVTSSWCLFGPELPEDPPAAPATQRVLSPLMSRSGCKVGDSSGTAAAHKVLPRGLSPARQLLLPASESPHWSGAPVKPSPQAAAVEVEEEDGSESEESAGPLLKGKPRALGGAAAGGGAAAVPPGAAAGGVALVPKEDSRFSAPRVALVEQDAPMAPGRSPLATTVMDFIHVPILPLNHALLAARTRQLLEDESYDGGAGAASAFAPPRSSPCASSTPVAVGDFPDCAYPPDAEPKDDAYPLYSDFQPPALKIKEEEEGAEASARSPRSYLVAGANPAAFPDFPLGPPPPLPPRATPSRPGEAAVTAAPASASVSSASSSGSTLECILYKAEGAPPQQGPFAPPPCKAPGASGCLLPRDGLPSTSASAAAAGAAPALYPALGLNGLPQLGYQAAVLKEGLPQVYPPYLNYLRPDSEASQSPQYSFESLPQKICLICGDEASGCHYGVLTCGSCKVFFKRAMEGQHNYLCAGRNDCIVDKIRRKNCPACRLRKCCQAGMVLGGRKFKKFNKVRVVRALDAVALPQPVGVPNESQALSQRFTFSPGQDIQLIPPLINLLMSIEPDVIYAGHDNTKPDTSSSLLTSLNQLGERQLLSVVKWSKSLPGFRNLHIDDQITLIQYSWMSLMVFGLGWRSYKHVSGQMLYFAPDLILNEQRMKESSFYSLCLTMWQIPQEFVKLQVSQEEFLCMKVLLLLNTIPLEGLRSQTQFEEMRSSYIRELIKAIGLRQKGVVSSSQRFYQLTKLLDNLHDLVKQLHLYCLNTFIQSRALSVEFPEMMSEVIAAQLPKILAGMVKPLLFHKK
# Test: Transactivation test on antagonistic activity on PR-B
# Assay type: cell-based
# Conditions: not given
# Protocol: The transactivation assay is carried out as described in WO 02/054064.
row,Compound,IC50
1,"Cc1ccc(C#CC(O)(C(=O)Nc2ccc(C#N)c(Cl)c2)C2CCCCC2)cc1 (racemic) [Example 4, rac-N-(3-Chloro-4-cyanophenyl)-2-hydroxy-2-cyclohexyl-2-(4-methylphenyl)-ethynylacetamide]",2 nM
2,"N#Cc1ccc(NC(=O)C(O)(C#Cc2ccc(O)cc2)C2CCCCC2)cc1Cl (racemic) [Example 10, rac-N-(3-Chloro-4-cyanophenyl)-2-hydroxy-2-cyclohexyl-2-(4-hydroxyphenyl)-ethynylacetamide]",7 nM
3,"N#Cc1ccc(NC(=O)C(O)(Cc2ccccc2)C2CCCCC2)cc1Cl (racemic) [Example 3, rac-N-(3-Chloro-4-cyanophenyl)-2-hydroxy-2-cyclohexyl-3-phenylpropanamide]",5.6 nM
4,"N#Cc1ccc(NC(=O)C(O)(C#Cc2ccc(C(=O)O)cc2)C2CCCCC2)cc1Cl (racemic) [Example 12, rac-N-(3-Chloro-4-cyanophenyl)-2-hydroxy-2-cyclohexyl-2-(4-carboxyphenyl)-ethynylacetamide]",1.8 nM

# Same assay, conditions: antagonistic activity on PR-B; read-out: IC50
row,Compound,IC50
1,"COc1ccc(CC(O)(C(=O)Nc2ccc(C#N)c(Cl)c2)C2CCCCC2)cc1 (racemic) [Example 16, rac-N-(3-Chloro-4-cyanophenyl)-2-cyclohexyl-2-hydroxy-3-(4-methoxyphenyl)-propionamide]",17 nM
2,rac-N-(3-Chloro-4-cyanophenyl)-2-hydroxy-2-cyclohexyl-2-(4-fluorophenyl)-ethynylacetamide [Example 6],5 nM
3,"N#Cc1ccc(NC(=O)C(O)(Cc2ccccc2)C2CCCC2)cc1C(F)(F)F (racemic) [Example 39, rac-N-(4-Cyano-3-trifluoromethylphenyl)-2-cyclopentyl-2-hydroxy-3-phenyl-propionamide]",17 nM
4,rac-N-(3-Chloro-4-cyanophenyl)-2-hydroxy-2-cyclohexyl-2-(4-trifluoromethyl-phenyl)ethynylacetamide [Example 5],7.9 nM
5,"N#Cc1ccc(NC(=O)C(O)(Cc2ccccc2)C2CCCC2)cc1Cl (racemic) [Example 32, rac-N-(3-Chloro-4-cyanophenyl)-2-cyclopentyl-2-hydroxy-3-phenylpropionamide]",27 nM
6,"N#Cc1ccc(NC(=O)C(O)(C#Cc2ccccc2)C2CCCCC2)cc1Cl (single isomer, unassigned; (-)) [Example 2b, (−)-N-(3-chloro-4-cyanophenyl)-2-hydroxy-2-cyclohexyl-2-phenylethynylacetamide]",1.8 nM
